Measurements: PMC2999882 (Molecular pharmacology, 2008)
Like-named read-outs stand apart in the source and are kept apart here.

Assays:
[1] = target: α7 nAChR (Homo sapiens, UniProt P36544)
[2] = target: T1, 5HT3 receptors (Homo sapiens, UniProt P46098); settings: cited from earlier work
T1 sequence (P46098 24-478): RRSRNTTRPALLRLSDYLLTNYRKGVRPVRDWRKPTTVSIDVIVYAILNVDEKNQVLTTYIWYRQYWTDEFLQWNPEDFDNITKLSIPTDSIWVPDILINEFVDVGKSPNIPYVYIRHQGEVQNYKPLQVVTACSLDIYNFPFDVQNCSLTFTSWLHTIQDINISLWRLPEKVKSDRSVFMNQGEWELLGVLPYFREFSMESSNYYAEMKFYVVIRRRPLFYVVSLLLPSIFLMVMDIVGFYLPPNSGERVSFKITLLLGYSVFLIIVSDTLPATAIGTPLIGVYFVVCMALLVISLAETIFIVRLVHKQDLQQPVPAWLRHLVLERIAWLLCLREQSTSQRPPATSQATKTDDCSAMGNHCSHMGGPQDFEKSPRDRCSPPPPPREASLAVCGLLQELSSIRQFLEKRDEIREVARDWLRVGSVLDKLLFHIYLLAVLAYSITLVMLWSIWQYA

[3] = target: α3β4 nAChR (Homo sapiens, UniProt P30926+P32297)
[4] = target: T2, α4β2 nAChR (Homo sapiens, UniProt P17787+P43681); assay: cell-based; format: cell-based
[5] = target: T2, α4β2 nAChR; format: cell-based
[6] = target: T3, muscle type (α1β1εδ) nAChR (Homo sapiens, UniProt P02708+Q04844+Q07001); format: cell-based
[7] = target: T3, muscle type (α1β1εδ) nAChR; format: cell-based; remark: listed apart in the source
[8] = target: T1, 5HT3 receptors; format: cell-based
[9] = target: T1, 5HT3 receptors; format: cell-based; remark: listed apart in the source
[10] = system: α7 nAChR; settings: cited from earlier work
[11] = system: other nAChR tested; settings: cited from earlier work

Chain of α7 nAChR (Homo sapiens, UniProt P36544) (P36544 23-502): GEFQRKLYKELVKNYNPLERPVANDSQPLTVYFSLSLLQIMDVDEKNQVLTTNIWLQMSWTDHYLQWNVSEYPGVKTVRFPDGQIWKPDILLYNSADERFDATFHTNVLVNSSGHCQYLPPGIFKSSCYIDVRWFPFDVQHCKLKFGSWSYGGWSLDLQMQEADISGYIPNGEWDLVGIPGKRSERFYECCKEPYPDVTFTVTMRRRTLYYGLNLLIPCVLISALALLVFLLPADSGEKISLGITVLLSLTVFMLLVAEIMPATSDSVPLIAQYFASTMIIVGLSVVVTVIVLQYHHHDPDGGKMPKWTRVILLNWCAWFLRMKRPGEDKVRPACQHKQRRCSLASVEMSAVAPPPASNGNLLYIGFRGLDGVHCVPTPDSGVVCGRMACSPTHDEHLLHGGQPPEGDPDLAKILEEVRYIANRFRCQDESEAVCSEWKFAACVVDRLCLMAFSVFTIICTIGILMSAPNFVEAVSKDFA
T2 sequence (P43681 29-627 limits assumed): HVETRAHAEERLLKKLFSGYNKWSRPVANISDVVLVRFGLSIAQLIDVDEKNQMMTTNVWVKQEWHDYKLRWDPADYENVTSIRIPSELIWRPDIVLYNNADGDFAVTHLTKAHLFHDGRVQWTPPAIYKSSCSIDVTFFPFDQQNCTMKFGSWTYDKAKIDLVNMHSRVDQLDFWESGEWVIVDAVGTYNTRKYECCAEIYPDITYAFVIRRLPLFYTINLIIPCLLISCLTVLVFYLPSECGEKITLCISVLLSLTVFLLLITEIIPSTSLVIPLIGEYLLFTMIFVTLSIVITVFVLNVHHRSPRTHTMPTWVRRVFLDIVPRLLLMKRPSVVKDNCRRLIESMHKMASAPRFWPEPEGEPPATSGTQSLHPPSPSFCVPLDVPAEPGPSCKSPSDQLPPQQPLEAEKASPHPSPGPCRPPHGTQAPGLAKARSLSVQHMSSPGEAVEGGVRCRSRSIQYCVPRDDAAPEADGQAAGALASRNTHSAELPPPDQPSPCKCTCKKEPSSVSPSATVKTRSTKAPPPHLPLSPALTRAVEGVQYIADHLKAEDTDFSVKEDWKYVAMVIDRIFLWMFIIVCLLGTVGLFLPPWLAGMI
T2 sequence (P17787 26-502): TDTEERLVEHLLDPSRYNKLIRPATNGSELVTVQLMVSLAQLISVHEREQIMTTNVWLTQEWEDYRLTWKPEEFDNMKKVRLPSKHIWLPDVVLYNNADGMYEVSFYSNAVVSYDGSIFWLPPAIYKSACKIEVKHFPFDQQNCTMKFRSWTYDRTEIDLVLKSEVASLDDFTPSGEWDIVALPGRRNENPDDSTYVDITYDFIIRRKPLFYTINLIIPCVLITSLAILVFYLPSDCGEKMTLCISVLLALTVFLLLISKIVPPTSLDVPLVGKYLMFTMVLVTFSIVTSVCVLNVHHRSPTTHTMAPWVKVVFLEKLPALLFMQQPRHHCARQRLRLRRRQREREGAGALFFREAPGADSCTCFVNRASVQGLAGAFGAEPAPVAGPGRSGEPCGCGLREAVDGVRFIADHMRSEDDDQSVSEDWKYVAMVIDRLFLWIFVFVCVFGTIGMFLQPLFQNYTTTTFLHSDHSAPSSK
Chain of α3β4 nAChR (P32297 32-505): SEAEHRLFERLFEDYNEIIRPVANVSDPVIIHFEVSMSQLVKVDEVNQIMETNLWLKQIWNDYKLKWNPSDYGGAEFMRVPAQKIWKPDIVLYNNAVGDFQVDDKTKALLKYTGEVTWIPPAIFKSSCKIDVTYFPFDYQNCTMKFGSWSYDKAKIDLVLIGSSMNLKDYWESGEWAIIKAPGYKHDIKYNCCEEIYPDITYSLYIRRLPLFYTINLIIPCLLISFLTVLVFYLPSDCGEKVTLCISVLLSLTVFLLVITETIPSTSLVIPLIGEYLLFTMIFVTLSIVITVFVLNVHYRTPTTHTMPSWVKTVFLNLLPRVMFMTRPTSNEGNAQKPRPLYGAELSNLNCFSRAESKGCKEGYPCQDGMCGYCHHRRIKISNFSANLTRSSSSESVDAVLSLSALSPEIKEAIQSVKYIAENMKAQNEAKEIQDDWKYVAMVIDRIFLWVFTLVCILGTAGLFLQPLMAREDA
Chain of α3β4 nAChR (P30926 22-498): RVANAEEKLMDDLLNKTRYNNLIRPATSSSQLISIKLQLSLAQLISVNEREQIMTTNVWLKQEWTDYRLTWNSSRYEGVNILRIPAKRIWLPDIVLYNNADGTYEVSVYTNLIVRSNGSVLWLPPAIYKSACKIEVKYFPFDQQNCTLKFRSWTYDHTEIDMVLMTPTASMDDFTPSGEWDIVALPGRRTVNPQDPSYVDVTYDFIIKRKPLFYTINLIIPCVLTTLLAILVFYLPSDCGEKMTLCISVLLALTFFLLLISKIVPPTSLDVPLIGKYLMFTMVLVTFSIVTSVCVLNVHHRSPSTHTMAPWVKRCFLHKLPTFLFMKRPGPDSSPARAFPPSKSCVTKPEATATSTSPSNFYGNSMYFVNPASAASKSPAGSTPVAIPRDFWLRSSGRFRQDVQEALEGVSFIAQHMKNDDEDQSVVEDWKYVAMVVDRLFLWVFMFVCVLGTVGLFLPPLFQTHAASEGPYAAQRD
T3 sequence (P02708 21-457): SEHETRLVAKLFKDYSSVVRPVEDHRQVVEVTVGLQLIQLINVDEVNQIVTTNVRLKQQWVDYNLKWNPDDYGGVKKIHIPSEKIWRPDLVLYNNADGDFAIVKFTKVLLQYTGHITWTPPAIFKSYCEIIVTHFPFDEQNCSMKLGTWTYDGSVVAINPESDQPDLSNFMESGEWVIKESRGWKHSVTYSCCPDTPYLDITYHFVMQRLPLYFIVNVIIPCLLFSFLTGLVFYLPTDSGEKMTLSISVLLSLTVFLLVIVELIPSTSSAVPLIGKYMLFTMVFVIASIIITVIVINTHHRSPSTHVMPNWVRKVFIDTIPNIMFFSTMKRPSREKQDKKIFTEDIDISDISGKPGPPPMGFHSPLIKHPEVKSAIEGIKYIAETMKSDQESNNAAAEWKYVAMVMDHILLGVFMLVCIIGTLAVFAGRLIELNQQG
T3 sequence (P11230 24-501 partner): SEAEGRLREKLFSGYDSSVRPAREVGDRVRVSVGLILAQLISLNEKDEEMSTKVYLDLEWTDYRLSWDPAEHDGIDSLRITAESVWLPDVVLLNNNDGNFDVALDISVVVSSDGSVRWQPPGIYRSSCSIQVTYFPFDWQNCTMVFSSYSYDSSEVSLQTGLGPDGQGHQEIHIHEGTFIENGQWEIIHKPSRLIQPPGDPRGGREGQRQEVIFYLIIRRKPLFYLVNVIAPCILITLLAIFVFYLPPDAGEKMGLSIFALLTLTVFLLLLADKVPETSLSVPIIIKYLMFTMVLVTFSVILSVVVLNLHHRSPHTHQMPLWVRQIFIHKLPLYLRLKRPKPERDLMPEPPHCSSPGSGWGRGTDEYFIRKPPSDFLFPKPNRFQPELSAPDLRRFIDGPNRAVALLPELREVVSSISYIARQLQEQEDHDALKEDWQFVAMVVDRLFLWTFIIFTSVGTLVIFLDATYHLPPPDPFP
T3 sequence (Q04844 21-493): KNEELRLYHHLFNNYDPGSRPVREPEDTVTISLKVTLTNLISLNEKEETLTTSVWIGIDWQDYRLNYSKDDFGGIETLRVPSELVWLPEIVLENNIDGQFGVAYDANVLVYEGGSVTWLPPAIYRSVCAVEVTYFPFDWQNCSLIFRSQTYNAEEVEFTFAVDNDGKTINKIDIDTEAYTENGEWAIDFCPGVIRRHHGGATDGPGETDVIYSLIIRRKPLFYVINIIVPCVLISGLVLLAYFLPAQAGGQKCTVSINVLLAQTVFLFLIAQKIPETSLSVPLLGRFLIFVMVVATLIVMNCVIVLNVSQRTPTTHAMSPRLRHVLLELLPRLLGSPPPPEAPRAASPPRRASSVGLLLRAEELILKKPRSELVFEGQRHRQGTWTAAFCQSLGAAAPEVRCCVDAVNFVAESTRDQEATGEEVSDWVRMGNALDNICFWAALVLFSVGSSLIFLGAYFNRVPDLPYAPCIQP
T3 sequence (Q07001 22-517): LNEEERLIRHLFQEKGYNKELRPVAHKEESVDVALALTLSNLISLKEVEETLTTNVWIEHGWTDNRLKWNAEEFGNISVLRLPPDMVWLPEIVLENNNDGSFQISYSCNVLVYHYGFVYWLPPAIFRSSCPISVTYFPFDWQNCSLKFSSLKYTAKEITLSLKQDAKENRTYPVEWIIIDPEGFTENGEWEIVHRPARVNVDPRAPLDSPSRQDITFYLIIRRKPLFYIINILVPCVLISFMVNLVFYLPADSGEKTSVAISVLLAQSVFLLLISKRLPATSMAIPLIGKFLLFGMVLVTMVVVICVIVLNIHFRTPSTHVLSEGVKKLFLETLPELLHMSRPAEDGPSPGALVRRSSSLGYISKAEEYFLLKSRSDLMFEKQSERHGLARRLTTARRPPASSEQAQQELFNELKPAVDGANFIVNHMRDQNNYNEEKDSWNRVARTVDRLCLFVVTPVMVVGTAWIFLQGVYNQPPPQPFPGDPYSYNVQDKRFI

Compound	α7 Imax [1]	α4β2 Activity [4]	α4β2 Inhibition [5]	α1β1εδ Activity [6]	α1β1εδ Inhibition [7]	5HT3 Activity [8]	5HT3 Inhibition [9]	α3β4 Imax [3]	further results
OCCN1CCCCC1 [1-(2-hydroxyethyl)piperidine]	–	–	–	–	–	–	–	–	agonist activity on α7 ([1]; 300 µM, data not shown): inactive
CN1[C@@H]2CCC[C@H]1CC2 [Tropane]	–	–	–	–	–	–	–	–	Effects on 5HT3 Receptors [2]: Neither agonist nor antagonist activity detected
CC(=O)OCC[N+](C)(C)C [ACh, acetylcholine, reference compound]	1.0	–	–	–	–	–	–	–	α3β4 Imax ([3]; peak current, relative to ACh maximum (ACh constrained to 1)): 1.0
COc1ccc(/C=C2\CN3CCC2CC3)cc1.Cl [MeOBQNZ, (Z)-3-(4-methoxybenzylidene)-1-azoniabicyclo[2.2.2]octane chloride]	0.09 ± 0.01	N	56 ± 4%	≤1%	76 ± 6%	N	80 ± 16%	<0.01	EC50 [1]: 1.1 ± 0.8 µM
CN1[C@@H]2CC[C@H]1C[C@@H](OC(=O)c1c[nH]c3ccccc13)C2 [Tropisetron]	–	–	–	–	–	–	–	–	Effects on 5HT3 Receptors ([2]; ref Macor et al., 2001, Papke et al., 2005a): Competitive antagonist
C(=C1\CN2CCC1CC2)/c1ccccc1.Cl [BQNE, E-3-benzylidene-1-azoniabicyclo[2.2.2]-octane chloride]	0.28 ± 0.01	N	77 ± 2%	N	70 ± 7%	N	94 ± 5%	<0.01	selectivity classification [1]: α7-selective
quinuclidinone [QN-O]	0.73 ± 0.04	N	N.S.	N	N.S.	N	N.S.	≥0.07±	selectivity classification [1]: α7-selective agonists; α7 potency, fold lower than related agonists that lack the oxygen group (e.g., ETMA and QN) [1]: at least 10 fold; EC50 ([1]; read-out: α7 EC50): 78 ± 11 µM; EC50 ([3]; read-out: α3β4 EC50): > 1000 µM
O=C(Oc1ccc(Br)cc1)N1CCN2CCC1CC2 [SSR-180711]	–	–	–	–	–	–	–	–	agonist character at α7 (Summary) ([10]; binding and voltage-clamp experiments, ref Biton et al., 2007): A relatively potent partial agonist with selectivity for α7 compared with other nAChR subtypes tested established by binding and voltage-clamp experiments.
OCCN1CCCC1 [1-(2-hydroxyethyl)pyrrolidine]	–	–	–	–	–	–	–	–	agonist activity on α7 [1]: inactive
O=C(N[C@H]1CN2CCC1CC2)c1cc2ccoc2cn1 [PHA-543,613, N-[(3R)-1-azabicyclo[2.2.2]oct-3-yl]furo[2,3-c]pyridine-5-carboxamide]	–	–	–	–	–	–	–	–	5HT3 receptors, inhibitory activity at ([2]; ref Wishka et al., 2006): Inhibitory activity at ≈ 600 nM
O=C(N[C@@H]1C[C@H]2CCN(C2)C1)c1cc2ccoc2cn1 [PHA-709829, N-[(3R,5R)-1-azabicyclo[3.2.1]oct-3-yl]furo[2,3-c]pyridine-5-carboxamide]	–	–	–	–	–	–	–	–	5HT3 receptors, inhibitory activity at ([2]; ref Acker et al., 2008): Inhibitory activity at ≈ 300 nM
CN1C[C@@H]2CN(c3ccc4oc5ccccc5c(=O)c4c3)C[C@@H]2C1 [A-844606]	–	–	–	–	–	–	–	–	agonist character at α7 (Summary) [10]: Partial agonist of a7 with relatively little activation of other nAChR tested. Demonstrated to have antagonist activity for α4β2 and more potently for putative α3β4. Mechanism of antagonism not investigated.; activity at other nAChR (Summary) [11]: Partial agonist of a7 with relatively little activation of other nAChR tested. Demonstrated to have antagonist activity for α4β2 and more potently for putative α3β4. Mechanism of antagonism not investigated.
CN1[C@@H]2CC[C@H]1CC(=O)C2 [Tropinone]	–	–	–	–	–	–	–	–	Effects on 5HT3 Receptors [2]: Neither agonist nor antagonist activity detected
CCN(CC)CCOc1ccc2c(c1)C(=O)c1cc(OCCN(CC)CC)ccc1-2 [Tilorone]	–	–	–	–	–	–	–	–	agonist character at α7 (Summary) ([10]; human α7, rat α7, oocytes, transfected cells, ref Briggs et al., 2008): Partial agonist; activity at other nAChR (Summary) ([11]; α4β2, putative α3β4 (IMR-32), ref Briggs et al., 2008): antagonist activity for α4β2 and more potently for putative α3β4
C[N+]12CCC(CC1)CC2.[I-] [MQN, 1-methyl-1-azoniabicyclo[2.2.2]octane iodide]	1.0 ± 0.1	N	72 ± 4%	N	N.S.	N	N.S.	0.025 ± 0.006	agonist character at α7 [1]: fully effective; agonist character at α3β4 [3]: essentially all activity was lost
C(=C1/CN2CCC1CC2)/c1ccccc1.Cl [BQNZ, (Z)-3-benzylidene-1-azoniabicyclo[2.2.2]octane chloride]	0.11 ± 0.01	≈1%	74 ± 6%	≈7%	N.S.	N	95 ± 4%	0.10 ± 0.01	EC50 [1]: 7.3 ± 0.7 µM; agonist character at α3β4 [3]: significant activation
C[N+]1(C)CCCC(O)C1 (centres unmarked) [N,N-dimethyl-3-piperidinol]	–	–	–	–	–	–	–	–	agonist activity on α7 [1]: inactive
O=C1NCC2(CN3CCC2CC3)O1 (single isomer, unassigned; (-)) [AR-R17779, (−)-Spiro[1-azabicyclo[2.2.2]octane-3,5′-oxazolidin-2′-one]]	–	–	–	–	–	–	–	–	Effects on 5HT3 Receptors [2]: None
CC[N+](C)(C)CC [dEdMA, diethyldimethylammonium]	0.95 ± 0.06	N	52 ± 5%	N	N.S.	N	N.S.	0.06 ± 0.01	selectivity classification [1]: α7-selective agonists; EC50 ([1]; read-out: α7 EC50): 197 ± 37 µM; α3β4 efficacy, fold difference (versus ETMA) [3]: greater than 10 fold
C[N+](C)(C)C [TMA, tetramethyl-ammonium, reference compound]	1.1 ± 0.1	19 ± 6%	N.S.	<2%	N.S.	N	N.S.	0.55 ± 0.03	activation of muscle-type nAChRs [6]: detectable activation; selectivity classification [1]: non-α7-selective; EC50 ([1]; read-out: α7 EC50): 30 ± 3 µM; agonist character at α3β4 [3]: partial agonists; EC50 ([3]; read-out: α3β4 EC50): 350 ± 190 µM
C1CN2CCC1CC2 [QN, quinuclidine]	1.03 ± 0.02	≈2%	74 ± 5%	3%	N.S.	N	N.S.	0.64 ± 0.01	Emax ([4]; read-out: α4β2 response, % of the ACh maximal responses): 3.2 ± 0.7%; activation of muscle-type nAChRs [6]: detectable activation; EC50 [1]: 7.2 ± 0.5 µM; agonist character at α7 [1]: potent and fully efficacious agonist; selectivity classification [1]: non-α7-selective; α7 activation at 300 µM [1]: maximal activation; EC50 [3]: 180 ± 10 µM; agonist character at α3β4 [3]: partial agonist; α3β4 efficacy, % that of ACh [3]: 64%; α3β4 response, % of the ACh maximum [3]: 46 ± 2%
CC[N+]12CCC(CC1)CC2.[I-] [EQN, 1-ethyl-1-azoniabicyclo[2.2.2]octane iodide]	–	–	–	–	–	–	–	–	agonist character at α7 [1]: weak partial agonist; mecamylamine-sensitive current, % of the total current [1]: 58 ± 3%; agonist character at α3β4 [3]: comparable with the current evoked in uninjected oocytes
CC[N+](C)(C)C [ETMA, reference compound]	1.0 ± 0.1	≤2%	40 ± 9%	N	N.S.	N	N.S.	0.78 ± 0.04	EC50 ([1]; read-out: α7 EC50): 19 ± 2 µM; agonist character at α3β4 [3]: partial agonists; EC50 ([3]; read-out: α3β4 EC50): 660 ± 90 µM
COc1ccc(/C=C2/CN3CCC2CC3)cc1.Cl [MeOBQNE, (E)-3-(4-methoxybenzylidene)-1-azoniabicyclo[2.2.2]-octane chloride]	0.41 ± 0.03	N	81 ± 2%	N	90 ± 2%	N	94 ± 5%	<0.01	–
C[N+]1(C)CCCCC1 [Dimethyl piperidinium]	–	–	–	–	–	–	–	–	Effects on 5HT3 Receptors [2]: Antagonist activity reported
